The target in assay [1] is T1, AT2 receptor of angiotensin II (Oryctolagus cuniculus, UniProt G1T351).
T1 construct: A fresh membrane preparation obtained from rabbit's uterus is used; from tissue; host or cells: rabbit uterus membranes (estradiol-pretreated, homogenate preincubated with 10 mM dithiothreitol)
T1 sequence (G1T351 1-363): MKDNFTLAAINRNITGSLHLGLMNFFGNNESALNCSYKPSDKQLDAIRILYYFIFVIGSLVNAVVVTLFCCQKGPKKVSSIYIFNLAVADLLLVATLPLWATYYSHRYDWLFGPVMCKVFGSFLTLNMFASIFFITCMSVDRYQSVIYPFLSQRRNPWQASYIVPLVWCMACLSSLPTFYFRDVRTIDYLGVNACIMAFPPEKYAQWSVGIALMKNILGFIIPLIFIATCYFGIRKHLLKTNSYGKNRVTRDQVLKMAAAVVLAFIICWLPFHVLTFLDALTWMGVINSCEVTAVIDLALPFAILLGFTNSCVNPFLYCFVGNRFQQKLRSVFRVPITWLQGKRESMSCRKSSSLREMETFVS
The assay can be described thus: Test on the AT2 receptor of angiotensin II (displacement of 125I angiotensin II, rabbit uterus membranes). The class given is binding. Particulars: rabbit uterus membranes (estradiol pre-treated), 10 mM dithiothreitol preincubation, 25° C., 150 minutes, pH 7.4. The protocol: 2) Test on the AT2 receptor of angiotensin II
A fresh membrane preparation obtained from rabbit's uterus is used, pre-treated 4 days beforehand with 50 ug of estradiol administered by percutaneous route. The tissue is ground up in a polytron in a 50 mM Tris buffer pH 7.4 and the grinding is followed by 3 centrifugations at 30,000 g for 15 minutes with intermediate take up of the pellets in the Tris buffer pH 7.4.
The last pellets are suspended in an incubation buffer (20 mM Tris, 135 mM NaCl, 10 mM KCl, 5 mM glucose, 10 mM MgCl2 6H2 O), 0.3 mM PMSF, 0.1 mM bacitracin, 0.1 o/oo lysozyme, pH 7.4).
The homogenate obtained is preincubated for 20 minutes at 25° C. in the presence of 10 mM dithiothreitol, then brought back to 0°-4° C.
1 ml aliquoted fractions are distributed in glass tubes and ^125 I angiotensin II (25,000 DPM/tube) and the product to be studied are added. The product is first tested at 3×10^-5 M three times. When the tested product displaces more than 50% of the radioactivity specifically bound to the receptor, it is tested again according to a range of 7 concentrations in order to determine the concentration which inhibits by 50% the radioactivity specifically bound to the receptor. In this way the 50% inhibitory concentration is determined.
The […] is determined by the addition of EXP 655 (=PD 123-177 from Warner-Lambert) at 10^-5 M (in triplicate). After incubation at 25° C. for 150 minutes, placing in a water bath at 0° C. for 5 minutes, filteration under vacuum and rinsing with Tris buffer pH 7.4, the radioactivity is counted in the presence of a scintillating solid.
(§1) The result is expressed directly as the 50% inhibitory concentration (IC50), that is to say as the concentration of product studied, expressed in nM, necessary to displace 50% of the specific radioactivity fixed to the receptor studied.

In assay [2] the target is T2, AT1 receptor of angiotensin II (Rattus norvegicus, UniProt P25095).
T2 construct: A fresh membrane preparation obtained from rat's liver is used; from tissue; host or cells: rat liver membranes
T2 sequence (P25095 1-359): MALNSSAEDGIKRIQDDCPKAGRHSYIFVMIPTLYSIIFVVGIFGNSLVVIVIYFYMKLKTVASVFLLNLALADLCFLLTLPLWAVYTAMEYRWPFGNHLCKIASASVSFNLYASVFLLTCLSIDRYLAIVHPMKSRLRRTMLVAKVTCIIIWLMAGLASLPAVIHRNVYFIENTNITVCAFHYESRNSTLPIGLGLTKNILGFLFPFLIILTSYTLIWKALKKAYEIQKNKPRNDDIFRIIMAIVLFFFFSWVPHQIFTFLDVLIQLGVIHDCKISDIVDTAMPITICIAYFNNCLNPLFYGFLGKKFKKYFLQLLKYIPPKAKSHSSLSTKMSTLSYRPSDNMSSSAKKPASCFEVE
In words: Test on the AT1 receptor of angiotensin II (displacement of 125I angiotensin II, rat liver membranes). Particulars: 25° C., 150 minutes, pH 7.4. The class given is binding. The protocol:
1--Test on the AT1 receptor of angiotensin II
A fresh membrane preparation obtained from rat's liver is used. The tissue is ground up in a polytron in a 50 mM Tris buffer pH 7.4, the grinding is followed by 3 centrifugations at 30,000 g for 15 minutes with intermediate take up of the pellets in the Tris buffer pH 7.4.
The last pellets are suspended in an incubation buffer (20 mM Tris, 135 mM NaCl, 10 mM KCl, 5 mM glucose, 135 mM MgCl2, 0.3 mM PMSF, 0.1 mM bacitracin, 0.1% lysozyme).
1 ml aliquoted fractions are distributed in glass tubes and ^125 I angiotensin II (25,000 DPM/tube) and the product to be studied are added. (The product is first tested at 3×10^-5 M three times). When the tested product displaces more than 50% of the radioactivity specifically bound to the receptor, it is tested again according to a range of 7 concentrations in order to determine the concentration which inhibits by 50% the radioactivity specifically bound to the receptor. In this way the 50% inhibitory concentration is determined).
The non-specific bond is determined by the addition of the product of Example 94 of the European Patent 0,253,310, at 10^-5 M (three times). After incubation at 25° C. for 150 minutes, placing in a water bath at 0° C. for 5 minutes, filteration under vacuum and rinsing with Tris buffer pH 7.4, the radioactivity is counted in the presence of a scintillating solid.
as §1
Background: In a radioligand displacement assay an active substance lowers the binding of a labelled ligand.

In assay [3] the test system is angiotensin II. In words: Test for antagonistic activity of angiotensin II in the demedullated rat. The class given is in vivo, rat (male Sprague Dawley). The note with it: angiotensin II 0.75 micrograms/kg, read-out: ID50 (50% inhibitory dose of the pressure effect of angiotensin II).
Setting [4] is: IV, injected 5 minutes before angiotensin II.

Each structure is given as a SMILES string. Read-outs that look alike come from different tables or passages of the source.

Broadly, the IC50 is the midpoint of a concentration-inhibition curve. As to `CCCc1nc(SC)c(C(=O)C[S+]([O-])c2ccccc2)n1Cc1ccc(-c2ccccc2S(=O)(=O)NC(=O)NCC2CCCC2)cc1` (racemic) [Example 46, (±) N-(((cyclopentylmethyl)amino)carbonyl) 4'-((4-(methylthio) 5-((phenylsulphinyl)acetyl) 2-propyl 1H-imidazol 1-yl)methyl) (1,1'-biphenyl) 2-sulphonamide], the IC50 in assay [1] worked out at 2.5 nM; in assay [2], 0.4 nM.
The matching figures for `CCCc1nc(SC)c(C(=O)C[S+]([O-])c2ccccc2)n1Cc1ccc(-c2ccccc2S(=O)(=O)NC(=O)CCC2CCCC2)cc1` (racemic) [Example 47, (±) N-(4'-((4-(methylthio) 5-((phenylsulphinyl)acetyl) 2-propyl 1H-imidazol 1-yl)methyl) (1,1'-biphenyl-2yl)sulphonyl) cyclopentanepropanamide]: 2.09 nM and 0.09 nM.
As for `CCCCc1nc(SC)c(C(=O)C(=O)O)n1Cc1ccc(-c2ccccc2S(=O)(=O)NC(=O)NCC2CCCCC2)cc1` [Example 7, 2-butyl 1-((2'-(((((cyclohexylmethyl)amino)carbonyl)amino)sulphonyl) (1,1'-biphenyl) 4-yl)methyl) 4-methylthio alpha oxo-1H-imidazole 5-acetic acid], the IC50 in assay [1] came to 6.8 nM; in assay [2], 0.7 nM.
As for `CCCCc1nc(SC)c(C(=O)C[S+](C)[O-])n1Cc1ccc(-c2ccccc2S(=O)(=O)NC(=O)NCc2ccccc2)cc1` (stereo not drawn) [Example 9, 4'-((2-butyl 5-(2-(methylsulphinyl)acetyl) 4-(methylthio) 1H-imidazol 1-yl)methyl) N-(((phenylmethyl)amino)carbonyl) (1,1'-biphenyl) 2-sulphonamide], the ED50 came out at 0.06 mg/kg in assay [3] (setting [4]) and 0.7 mg/kg in assay [3] (PO). The IC50 in assay [1] is 15 nM; in assay [2], 0.3 nM.
Consider `CCCCc1nc(SC)c(C(=O)C(=O)O)n1Cc1ccc(-c2ccccc2S(=O)(=O)NC(=O)NCc2ccccc2)cc1` [Example 10, 2-butyl 4-(methylthio) alpha oxo 1-((2'-(((((phenylmethyl)amino)carbonyl)amino)sulphonyl) (1,1'-biphenyl) 4-yl)methyl) 1-H-imidazole 5-acetic acid], for which the values for the IC50 in assay [1] and in assay [2] were 38 nM and 0.18 nM, respectively.
On to `CCCCc1nc(SC)c(C(=O)C(=O)NCc2ccccc2)n1Cc1ccc(-c2ccccc2S(=O)(=O)NC(=O)NCc2ccccc2)cc1` [Example 11, 2-butyl 4-(methylthio) alpha oxo N-(phenylmethyl) 1-((2'-(((((phenylmethyl)amino)carbonyl)amino)sulphonyl) (1,1'-biphenyl) 4-yl)methyl) 1-H-imidazole 5-acetamide], for which the IC50 in assay [1] turned out to be 53 nM; in assay [2] it was 0.6 nM.
The matching figures for `CCCCc1nc(SC)c(C(=O)CC(=O)OCC)n1Cc1ccc(-c2ccccc2S(=O)(=O)NC(=O)NCCC)cc1` [Example 12]: 83 nM and 0.2 nM.
`CCCCc1nc(SC)c(C(=O)Nc2nnn[nH]2)n1Cc1ccc(-c2ccccc2S(=O)(=O)NC(=O)NCCC)cc1` [Example 13]: the ED50 in assay [3] (setting [4]) is 0.12 mg/kg. Further, the IC50 in assay [1] came to 24 nM; in assay [2] it was 0.24 nM.
Take `CCCc1nc(SC)c(C(=O)Nc2nn[nH]n2)n1Cc1ccc(-c2ccccc2S(=O)(=O)NC(=O)NCc2ccccc2)cc1` [Example 15, 4-(methylthio) 1-((2'-(((((phenylmethyl)amino)carbonyl)amino)sulphonyl) (1,1'-biphenyl) 4-yl)methyl) 2-propyl N-(2H-tetrazol 5-yl) 1H-imidazole 5-carboxamide]: the IC50 in assay [1] is 2 nM; in assay [2], 0.2 nM.
As for `CCCc1nc(SC)c(C(=O)C[S+]([O-])c2ccccc2)n1Cc1ccc(-c2ccccc2S(=O)(=O)NC(=O)NCc2ccccc2)cc1` (stereo not drawn) [Example 20, 4'-((4-(methylthio) 5-(2-(phenylsulphinyl)acetyl) 2-propyl 1H-imidazol-1-yl)methyl) N-(((phenylmethyl)amino)carbonyl) (1,1'-biphenyl) 2-sulphonamide], the figures for the ED50 in assay [3] (setting [4]) and in assay [3] (PO) were 0.04 mg/kg and 0.8 mg/kg, respectively. Further, the IC50 in assay [1] stood at 0.8 nM; in assay [2] it was 0.08 nM.
Regarding `CCCCc1nc(SC)c(C(=O)CC(=O)OCC)n1Cc1ccc(-c2ccccc2S(=O)(=O)NC(=O)NCc2ccccc2)cc1` [Example 21, ethyl 2-butyl 4-(methylthio) beta-oxo-1-((2'-(((((phenylmethyl)amino)carbonyl)amino)sulphonyl) (1,1'-biphenyl) 4-yl)methyl) 1H-imidazole 5-propanoate], in assay [3] (setting [4]), the ED50 came to 0.08 mg/kg. The figures for the IC50 in assay [1] and in assay [2] were 1 nM and 0.08 nM, respectively.
Regarding `CCCc1nc(SC)c(C(=O)C[S+]([O-])c2ccccc2)n1Cc1ccc(-c2ccccc2S(=O)(=O)NC(=O)NCc2cccs2)cc1` (stereo not drawn) [Example 34, 4'-((4-(methylthio) 5-((phenylsulphinyl)acetyl) 2-propyl 1H-imidazol-1-yl)methyl) N-(((2-thienylmethyl)amino)carbonyl) (1,1'-biphenyl) 2-sulphonamide], the values for the IC50 in assay [1] and in assay [2] were 2.2 nM and 0.05 nM, respectively.

(Values after patent US5807878A, “Tetrasubstituted imidazoles” (Uclaf; Roussel, priority 1994, dated 1998).)
